Data taken from PubChem BioAssay (NCI).
Values joined by “and” are separate entries in the source; they are usually repeats but may differ in a detail not shown here. Equal entries are not always repeated.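 All cell lines were grown in 96-well plates and treated with compound for 48 hours. GI50 is the concentration that inhibits growth by half. TGI denotes the concentration required for complete inhibition of growth.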

Legend:
Assay in all cases: NCI tumour cell line growth inhibition, 48 h
M19-MEL melanoma = test system: M19-MEL melanoma
XF 498 CNS = test system: XF 498 CNS
DMS 114 small cell lung = test system: DMS 114 small cell lung
HOP-18 NSCLC = test system: HOP-18 NSCLC
KM20L2 colon = test system: KM20L2 colon
DLD-1 colon = test system: DLD-1 colon
LXFL 529 NSCLC = test system: LXFL 529 NSCLC
RXF-631 renal = test system: RXF-631 renal
MDA-N = test system: MDA-N
SN12K1 renal = test system: SN12K1 renal
P388 leukemia = test system: P388 leukemia

SMILES	TGI (M19-MEL melanoma)	TGI (XF 498 CNS)	TGI (DMS 114 small cell lung)	TGI (HOP-18 NSCLC) [µM]	TGI (KM20L2 colon)	TGI (DLD-1 colon) [µM]	TGI (LXFL 529 NSCLC) [µM]	TGI (RXF-631 renal) [µM]	other results
O=C1[C@@H]2C3SC(c4ccccc43)[C@@H]2C(=O)N1c1ccccc1	> 100 µM	> 100 µM	> 100 µM	> 100	> 100 µM	> 100	> 100	–	–
O=C(CC(=O)Nc1ccccc1O)Nc1ccccc1O	28.4 µM	–	12.6 µM	34.2	> 100 µM	40.3	63.9	49.9	–
Nc1ccc2c(c1)CC1c3ccccc3C(C2)c2ccccc21	> 100 µM	–	> 100 µM	> 100	> 100 µM	> 100	> 100	–	–
O=C(O)c1ccc(NCc2nc3cc4ccccc4cc3[nH]2)cc1	–	–	–	–	–	–	–	–	TGI (MDA-N): > 100 µM
Cc1ccccc1NC(=O)C1C(=O)N(c2ccccc2C)C(=O)/C1=N\N (stereo not drawn)	> 100 µM	–	> 100 µM	> 100	> 100 µM	> 100	> 100	> 100	–
Nc1nc(N)c(N=O)c(Nc2ccc(I)cc2)n1	> 100 µM	–	64.9 µM	–	80.6 µM	21.6	60.6	–	–
COc1cc(C(=O)C/C(CCC(=O)Nc2ccc(Cl)cc2Cl)=N/NC(=O)C(N)=O)ccc1O	> 100 µM	> 100 µM	> 100 µM	> 100	> 100 µM	> 100	> 100	> 100	–
C/C(=N\NC(=O)c1ccccc1O)c1cccc(/C(C)=N/NC(=O)c2ccccc2O)n1	> 74 µM	46.7 µM	36.9 µM	39.4	> 100 µM	> 100	53.1	–	GI50 (M19-MEL melanoma): 11.5 µM; GI50 (HOP-18 NSCLC): 1.84 µM; GI50 (KM20L2 colon): 1.13 µM; TGI (MDA-N): > 100 µM; GI50 (DLD-1 colon): 2.62 µM
COc1cc2c(c(OC)c1OC)-c1ccc(SC)c(=O)cc1[C@@H](NCc1cccc(C#N)c1)CC2	42.4 µM	< 0.0075 µM	0.0347 µM and < 0.0075 µM	–	0.0302 µM and < 0.0075 µM	> 75	> 75	21.6	GI50 (M19-MEL melanoma): < 0.0075 µM; GI50 (XF 498 CNS): < 0.0075 µM; GI50 (DMS 114 small cell lung): < 0.0075 µM; GI50 (KM20L2 colon): < 0.0075 µM; GI50 (DLD-1 colon): < 0.0075 µM; GI50 (LXFL 529 NSCLC): < 0.0075 µM
O=C(O)CCCSc1nc2ccccc2s1	–	–	–	–	–	–	–	–	TGI (MDA-N): > 100 µM
CC(=O)Nc1ccccc1-c1cnc2ccccc2n1	> 100 µM	> 100 µM	> 100 µM	> 100	> 100 µM	> 100	> 100	–	–
Cc1ccc(NC(=O)CC/C(CC(=O)c2ccc(F)cc2)=N\NC(=O)C(=O)NN)cc1C	> 100 µM	–	> 100 µM	> 100	> 100 µM	> 100	> 100	> 100	–
O=C(/C=C/c1ccccc1O)c1cccnc1	> 100 µM	> 100 µM	–	> 100	> 100 µM	> 100	> 100	> 100	–
O=C(O)C[O][Sb][O]CC(=O)O	–	–	–	–	–	–	–	–	GI50 (MDA-N): > 100 µM; TGI (MDA-N): > 100 µM
CCOC(=O)C(Cc1ccccc1)NC(=O)OC(C)(C)C (stereo not drawn)	> 100 µM	> 100 µM	> 100 µM	–	–	> 100	> 100	> 100	–
O=C(O)CCCCCO	> 100 µM	> 100 µM	> 100 µM	> 100	> 100 µM	> 100	> 100	–	–
NCCCC1NC(=O)/C(=C(O)/C=C/C2CCC[C@@H]2CC2SCCS2)C1=O (stereo partly drawn)	> 100 µM	–	> 100 µM	> 100	> 100 µM	> 100	> 100	–	–
NC(CSc1nc2ccccn2c1[N+](=O)[O-])C(=O)O (stereo not drawn)	–	–	–	–	–	–	–	–	TGI (MDA-N): > 100 µM
CC1=C(C(=O)CC(=O)C(=O)Nc2ccccc2)Sc2ccccc2N1	> 100 µM	> 100 µM	> 100 µM	> 100	> 100 µM	> 100	> 100	> 100	–

SMILES	TGI (M19-MEL melanoma)	TGI (XF 498 CNS)	TGI (DMS 114 small cell lung)	TGI (HOP-18 NSCLC) [µM]	TGI (KM20L2 colon)	TGI (DLD-1 colon) [µM]	TGI (LXFL 529 NSCLC) [µM]	TGI (RXF-631 renal) [µM]	other results
CCc1ccc(Nc2cc(=O)[nH]c(=S)n2C)cc1	> 100 µM	> 100 µM	> 100 µM	> 100	> 100 µM	> 100	> 100	–	–
NC(=S)NNC(=O)CCC(=O)Nc1ccc(Cl)cc1Cl	> 100 µM	–	> 100 µM	–	> 100 µM	> 100	86.9	> 100	–
Nc1ncnc2c(C3OC(CO)C(O)C3O)[nH]nc12 (stereo not drawn)	80.5 µM	1.34 µM	1.36 µM	0.144	8.26 µM	10.8	–	–	TGI (SN12K1 renal): 1.88 µM; TGI (P388 leukemia): 51.7 µM
CCC[CH2][Ge]([CH2]CCC)([CH2]CCC)[O]C(=O)C(OC)c1ccccc1 (stereo not drawn)	> 100 µM	> 100 µM	34.4 µM	> 100	> 100 µM	> 100	> 100	> 100	GI50 (M19-MEL melanoma): 33.9 µM; GI50 (XF 498 CNS): 41.1 µM; GI50 (DMS 114 small cell lung): 7.56 µM; GI50 (HOP-18 NSCLC): > 100 µM; GI50 (KM20L2 colon): 17.2 µM; GI50 (RXF-631 renal): 29.4 µM; GI50 (DLD-1 colon): 23.7 µM; GI50 (LXFL 529 NSCLC): 15.6 µM
CCC[CH2][Sn]([CH2]CCC)([O]C(=O)c1cc(OC)c(OC)cc1OC)[O]C(=O)c1cc(OC)c(OC)cc1OC	2.36 µM	2.16 µM	1.95 µM	–	–	2.92	1.22	2.93	GI50 (M19-MEL melanoma): 1.03 µM; GI50 (XF 498 CNS): 0.767 µM; GI50 (DMS 114 small cell lung): 0.492 µM; GI50 (RXF-631 renal): 1.37 µM; GI50 (DLD-1 colon): 1.51 µM; GI50 (LXFL 529 NSCLC): 0.346 µM
O=C1OC(C2=CC(=O)c3ccccc3C2=O)C(Cl)=C1Cl (stereo not drawn)	–	–	–	–	–	–	–	–	TGI (MDA-N): > 100 µM
CCOC(=O)N1N=NC2C3OC(C[C@@]3(C#N)OC(C)=O)[C@H]21 (stereo partly drawn)	> 100 µM	> 100 µM	–	> 100	> 100 µM	> 100	> 100	> 100	–
CCCCCCCCCC1C(C)c2c([nH]c3ccccc23)C2C(=O)N(c3ccccc3)C(=O)C21 (stereo not drawn)	–	23.2 µM	28.4 µM	–	24.9 µM	30.2	50.4	11.7	–
COc1cc2ccnc(-c3c4ccccc4c(N)c4c(OC)c(OC)ccc34)c2cc1OC	13.7 µM	6.75 µM	4.71 µM	–	–	16.6	15.7	–	–
Nc1ncnc2c(C3OC(CO)C(O)C3O)scc12 (stereo not drawn)	3.4 µM and 2.31 µM	0.353 µM and 0.581 µM	0.548 µM and 0.31 µM	4.54	1.07 µM and 1.64 µM	–	12.9	–	GI50 (M19-MEL melanoma): 0.147 µM; GI50 (LXFL 529 NSCLC): 0.365 µM
CC1=CC2=C(C(N)=O)C(=O)OC2(C)C(c2ccccc2)C1 (stereo not drawn)	–	–	–	–	–	–	–	–	TGI (MDA-N): > 100 µM
S=C=NCc1ccccc1	–	–	–	–	–	–	–	–	TGI (MDA-N): 12.4 µM
CC(=O)OC1C/C(C)=C/CCC(C)/C=C/C2(C)CCC(C(C)(C)O)C12 (stereo not drawn)	88.6 µM	> 100 µM	> 100 µM	> 100	> 100 µM	> 100	> 100	–	–
O=C1c2ccccc2-c2n[nH]c3cccc1c23	–	–	–	–	–	–	–	–	TGI (MDA-N): > 100 µM
COc1cc(/C=C/c2ccc(OC(C)=O)cc2)cc(OC)c1OC	> 100 µM	–	94.2 µM	> 100	> 100 µM	> 100	> 100	> 100	–
CCC[CH2][Ge]([CH2]CCC)([CH2]CCC)[O]C(=O)C(O)c1ccccc1 (stereo not drawn)	22.3 µM	4.92 µM	7.19 µM	51	22 µM	21.9	21.4	31.9	GI50 (M19-MEL melanoma): 8.65 µM; GI50 (DMS 114 small cell lung): 0.284 µM; GI50 (HOP-18 NSCLC): 18.5 µM; GI50 (KM20L2 colon): 2.18 µM; GI50 (RXF-631 renal): 5.7 µM; GI50 (DLD-1 colon): 1.99 µM; GI50 (LXFL 529 NSCLC): 1.29 µM
Cc1ccccc1-c1c(N)nc(N)nc1C(=O)Nc1nccs1	> 100 µM	> 100 µM	> 100 µM	> 100	> 100 µM	> 100	> 100	> 100	–
OCCNc1ncnc2c1ncn2C1OC(CO)C(O)C1O (stereo not drawn)	–	–	–	–	–	–	–	–	TGI (MDA-N): > 100 µM
CCC1(C(=O)OC)CCc2c(OC)ccc(OC)c2C1=O (stereo not drawn)	> 100 µM	> 100 µM	> 100 µM	> 100	> 100 µM	> 100	> 100	> 100	–
